In patent US20220363665A1, “QUINOLINE COMPOUNDS FOR THE TREATMENT OF AUTOIMMUNE DISEASE” (Hoffmann-La Roche Inc., priority 2019, published 2022):

Target: T1, human TLR7 (Homo sapiens, UniProt Q9NYK1)
T1 construct: host or cells: HEK293 (HEK-Blue hTLR7)
T1 sequence (Q9NYK1 27-1049): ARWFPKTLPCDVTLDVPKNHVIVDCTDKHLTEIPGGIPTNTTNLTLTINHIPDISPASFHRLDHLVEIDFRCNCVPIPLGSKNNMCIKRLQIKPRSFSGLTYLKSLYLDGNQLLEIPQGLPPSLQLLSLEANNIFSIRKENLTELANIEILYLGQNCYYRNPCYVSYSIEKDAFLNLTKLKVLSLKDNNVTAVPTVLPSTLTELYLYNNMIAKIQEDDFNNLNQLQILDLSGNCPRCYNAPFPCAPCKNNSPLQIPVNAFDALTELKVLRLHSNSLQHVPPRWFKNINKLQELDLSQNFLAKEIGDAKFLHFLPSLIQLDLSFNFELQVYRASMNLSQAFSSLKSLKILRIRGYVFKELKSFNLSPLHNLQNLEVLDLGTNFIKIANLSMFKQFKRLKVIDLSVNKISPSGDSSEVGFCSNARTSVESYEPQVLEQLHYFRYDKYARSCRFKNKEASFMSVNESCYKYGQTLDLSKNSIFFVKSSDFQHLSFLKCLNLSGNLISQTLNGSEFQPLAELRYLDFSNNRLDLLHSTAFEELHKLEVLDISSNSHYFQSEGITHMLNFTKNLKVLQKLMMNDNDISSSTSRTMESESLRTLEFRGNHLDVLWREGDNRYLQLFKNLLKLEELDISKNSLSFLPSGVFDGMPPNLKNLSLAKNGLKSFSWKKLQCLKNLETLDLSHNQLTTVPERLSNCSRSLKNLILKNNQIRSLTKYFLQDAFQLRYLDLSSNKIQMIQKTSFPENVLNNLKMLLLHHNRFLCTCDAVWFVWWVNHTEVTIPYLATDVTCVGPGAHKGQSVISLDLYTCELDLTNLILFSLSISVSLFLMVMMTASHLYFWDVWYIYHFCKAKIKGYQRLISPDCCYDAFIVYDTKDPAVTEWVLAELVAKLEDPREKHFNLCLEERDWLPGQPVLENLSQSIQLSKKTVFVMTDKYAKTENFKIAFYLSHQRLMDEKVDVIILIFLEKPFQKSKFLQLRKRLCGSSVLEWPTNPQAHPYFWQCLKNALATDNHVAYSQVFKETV
Assay: HEK293-Blue-hTLR-7 cells assay (SEAP reporter, R848 stimulation)
Type: cell-based
Conditions: HEK293-Blue-hTLR7 cells, R848, 20 hrs
Method: The following tests were carried out in order to determine the activity of the compounds of formula (I) in HEK293-Blue-hTLR-7/8/9 cells assay.
HEK293-Blue-hTLR-7 Cells Assay:
A stable HEK293-Blue-hTLR-7 cell line was purchased from InvivoGen (Cat. #: hkb-htlr7, San Diego, Calif. USA). These cells were originally designed for studying the stimulation of human TLR7 by monitoring the activation of NF-κB. A SEAP (secreted embryonic alkaline phosphatase) reporter gene was placed under the control of the IFN-β minimal promoter fused to five NF-κB and AP-1-binding sites. The SEAP was induced by activating NF-κB and AP-1 via stimulating HEK-Blue hTLR7 cells with TLR7 ligands. Therefore the reporter expression was declined by TLR7 antagonist under the stimulation of a ligand, such as R848 (Resiquimod), for incubation of 20 hrs. The cell culture supernatant SEAP reporter activity was determined using QUANTI-Blue™ kit (Cat. #: rep-qbl, Invivogen, San Diego, Calif., USA) at a wavelength of 640 nm, a detection medium that turns purple or blue in the presence of alkaline phosphatase.
HEK293-Blue-hTLR7 cells were incubated at a density of 250,000˜450,000 cells/mL in a volume of 170 μL in a 96-well plate in Dulbecco's Modified Eagle's medium (DMEM) containing 4.5 g/L glucose, 50 U/mL penicillin, […], […], 2 mM L-glutamine, 10% (v/v) heat-inactivated fetal bovine serum with addition of 20 μL A test compound in a serial dilution in the presence of final DMSO at 1% and 10 μL of 20 uM R848 in above DMEM, perform incubation under 37° C. in a CO2 incubator for 20 hrs. Then 20 μL of the supernatant from each well was incubated with 180 μQuanti-blue substrate solution at 37° C. for 2 hrs and the absorbance was read at 620˜655 nm using a spectrophotometer. The signalling pathway that TLR7 activation leads to downstream NF-κB activation has been widely accepted, and therefore similar reporter assay was modified for evaluating TLR7 antagonist.

In order of rising IC50:
1. C[C@@H]1CN(c2ccc(C(F)(F)F)c3ncccc23)C[C@H](C(=O)NC2CC3COCC(C2)N3)O1 (stereo partly drawn) [Example 33, (2R,6R)-6-methyl-N-(3-oxa-9-azabicyclo[3.3.1]nonan-7-yl)-4-[8-(trifluoromethyl)-5-quinolyl]morpholine-2-carboxamide]  2 nM
2. C[C@@H]1CN(c2ccc(I)c3ncccc23)C[C@H](C(=O)NC2CCN(C)CC2)O1 [Example 38, (2R,6R)-4-(8-iodo-5-quinolyl)-6-methyl-N-(1-methyl-4-piperidyl)morpholine-2-carboxamide]  3 nM
3. C[C@@H]1CN(c2ccc(C(F)(F)F)c3ncccc23)C[C@H](C(=O)NC2CCCNCC2)O1 (stereo partly drawn) [Example 8, (2R,6R)-N-(azepan-4-yl)-6-methyl-4-[8-(trifluoromethyl)-5-quinolyl]morpholine-2-carboxamide]  4 nM
4. C[C@@H]1CN(c2ccc(C(F)(F)F)c3ncccc23)C[C@H](C(=O)NC2CC3CCCC(C2)N3)O1 (single isomer, unassigned) [Example 34A]  4 nM
5. C[C@@H]1CN(c2ccc(Br)c3ncccc23)C[C@H](C(=O)NC2CCN(C)CC2)O1 [Example 42, (2R,6R)-4-(8-bromo-5-quinolyl)-6-methyl-N-(1-methyl-4-piperidyl)morpholine-2-carboxamide]  5 nM
6. C[C@@H]1CN(c2ccc([N+](=O)[O-])c3ncccc23)C[C@H](C(=O)NCC2CN(C)CCO2)O1 (stereo partly drawn) [Example 18, (2R,6R)-6-methyl-N-[(4-methylmorpholin-2-yl)methyl]-4-(8-nitro-5-quinolyl)morpholine-2-carboxamide]  5 nM
7. C[C@@H]1CN(c2ccc(C(F)(F)F)c3ncccc23)C[C@H](C(=O)NC2C3CCC2CNC3)O1 (stereo partly drawn) [Example 31, (2R,6R)-N-(3-azabicyclo[3.2.1]octan-8-yl)-6-methyl-4-[8-(trifluoromethyl)-5-quinolyl]morpholine-2-carboxamide]  5 nM
8. C[C@@H]1CN(c2ccc(C(F)(F)F)c3ncccc23)C[C@H](C(=O)NCC2CCCCN2C)O1 (stereo partly drawn) [Example 4, (2R,6R)-6-methyl-N-[(1-methyl-2-piperidyl)methyl]-4-[8-(trifluoromethyl)-5-quinolyl]morpholine-2-carboxamide]  6 nM
9. C[C@@H]1CN(c2ccc(C(F)(F)F)c3ncccc23)C[C@H](C(=O)NC2CCN(C)CC2)O1 [Example 5, (2R,6R)-6-methyl-N-(1-methyl-4-piperidyl)-4-[8-(trifluoromethyl)-5-quinolyl]morpholine-2-carboxamide]  7 nM
10. C[C@H]1C[C@@H](N)CN(c2ccc(Cl)c3ncccc23)C1 [Example 23, (3R,5S)-1-(8-chloro-5-quinolyl)-5-methyl-piperidin-3-amine]  7 nM
11. C[C@@H]1CN(c2ccc(C(F)(F)F)c3ncccc23)C[C@H](C(=O)NC2C3CNCC2COC3)O1 (single isomer, unassigned) [Example 46A]  8 nM
12. C[C@@H]1CN(c2ccc(C(F)(F)F)c3ncccc23)C[C@H](C(=O)NCC2CN(C)CCO2)O1 (stereo partly drawn) [Example 3, (2R,6R)-6-methyl-N-[(4-methylmorpholin-2-yl)methyl]-4-[8-(trifluoromethyl)-5-quinolyl]morpholine-2-carboxamide]  12 nM
13. C[C@@H]1CN(c2ccc(C(F)(F)F)c3ncccc23)C[C@H](C(=O)NC2CN(C)CC23CC3)O1 (stereo partly drawn) [Example 9, (2R,6R)-6-methyl-N-(5-methyl-5-azaspiro[2.4]heptan-7-yl)-4-[8-(trifluoromethyl)-5-quinolyl]morpholine-2-carboxamide]  14 nM
14. C[C@@H]1CN(c2ccc(Br)c3ncccc23)C[C@H](C(=O)NC2CNCC2F)O1 (stereo partly drawn) [Example 41, cis-(2R,6R)-4-(8-bromo-5-quinolyl)-N-[4-fluoropyrrolidin-3-yl]-6-methyl-morpholine-2-carboxamide]  15 nM
15. C[C@@H]1CN(c2ccc(I)c3ncccc23)C[C@H](C(=O)NC2CNCC2F)O1 (stereo partly drawn) [Example 40, cis-(2R,6R)-N-[4-fluoropyrrolidin-3-yl]-4-(8-iodo-5-quinolyl)-6-methyl-morpholine-2-carboxamide]  15 nM
16. C[C@@H]1CN(c2ccc(Cl)c3ncccc23)C[C@H](C(=O)NC2CCN(C)CC2)O1 [Example 24, (2R,6R)-4-(8-chloro-5-quinolyI)-6-methyl-N-(1-methyl-4-piperidyl)morpholine-2-carboxamide]  15 nM
17. C[C@@H]1CN(c2ccc(C(F)(F)F)c3ncccc23)C[C@H](C(=O)NC2CC3CNCC32)O1 (single isomer, unassigned) [Example 49B]  20 nM
18. C[C@@H]1CN(c2ccc(C(F)(F)F)c3ncccc23)C[C@H](C(=O)NCC2CNCC2(F)F)O1 (stereo partly drawn) [Example 29, (2R,6R)-N-[(4,4-difluoropyrrolidin-3-yl)methyl]-6-methyl-4-[8-(trifluoromethyl)-5-quinolyl]morpholine-2-carboxamide]  37 nM
19. C[C@@H]1CN(c2ccc(Cl)c3ncccc23)C[C@H](C(=O)N[C@H]2CNC[C@H]2F)O1 [Example 22, (2R,6R)-4-(8-chloro-5-quinolyl)-N-[(3S,4R)-4-fluoropyrrolidin-3-yl]-6-methyl-morpholine-2-carboxamide]  39 nM
20. C[C@@H]1CN(c2ccc(C(F)(F)F)c3ncccc23)C[C@H](C(=O)NCC2COCCN2C)O1 (stereo partly drawn) [Example 11, (2R,6R)-6-methyl-N-[(4-methylmorpholin-3-yl)methyl]-4-[8-(trifluoromethyl)-5-quinolyl]morpholine-2-carboxamide]  51 nM
21. C[C@@H]1CN(c2ccc(C(F)(F)F)c3ncccc23)C[C@H](C(=O)NC2CNC[C@@H]2F)O1 (stereo partly drawn) [Example 2, cis-(2R,6R)-N-(4-fluoropyrrolidin-3-yl)-6-methyl-4-[8-(trifluoromethyl)-5-quinolyl]morpholine-2-carboxamide]  52 nM
22. C[C@@H]1CN(c2ccc(C(F)(F)F)c3ncccc23)C[C@H](C(=O)N2CC(N)C2)O1 [Example 7, (3-aminoazetidin-1-yl)-[(2R,6R)-6-methyl-4-[8-(trifluoromethyl)-5-quinolyl]morpholin-2-yl]methanone]  63 nM
23. Cc1ccc(N2C[C@@H](C)O[C@@H](C(=O)N[C@@H]3CNC[C@@H]3F)C2)c2cccnc12 [Example 21, cis-(2R,6R)-N-14-fluoropyrrolidin-3-yl1-6-methyl-4-(8-methyl-5-quinolyl)morpholine-2carboxamide]  71 nM
24. C[C@@H]1CN(c2ccc(C(F)(F)F)c3ncccc23)C[C@H](C(=O)N2CCC3(CCNCC3)CC2)O1 [Example 32, 3,9-diazaspiro[5.5]undecan-3-yl-[(2R,6R)-6-methyl-4-[8-(trifluoromethyl)-5-quinolyl]morpholin-2-yl]methanone]  78 nM
25. Cc1ccc(N2C[C@@H](C)O[C@@H](C(=O)NCC3CN(C)CCO3)C2)c2cccnc12 (stereo partly drawn) [Example 17, (2R,6R)-6-methyl-N-[(4-methylmorpholin-2-yl)methyl]-4-(8-methyl-5-quinolyl)morpholine-2-carboxamide]  140 nM
26. C[C@@H]1CN(c2ccc(C(F)(F)F)c3ncccc23)C[C@H](C(=O)N2CCC(N)C2)O1 (stereo partly drawn) [Example 10, (3-aminopyrrolidin-1-yl)-[(2R,6R)-6-methyl-4-[8-(trifluoromethyl)-5-quinolyl]morpholin-2-yl]methanone]  360 nM
